Calls of active or inactive are those of the source. How the calls were made is not given here.
Each compound was assayed against Ubiquitin-conjugating enzyme E2 N (Homo sapiens) (UniProt P61088) (assay: NMR detection of UBE2N ligand binding – biophysical, purified protein (AID 1552)). Conditions: NMR binding to purified UBE2N.
Chain of Ubiquitin-conjugating enzyme E2 N (Homo sapiens) (P61088 whole entry, looked up): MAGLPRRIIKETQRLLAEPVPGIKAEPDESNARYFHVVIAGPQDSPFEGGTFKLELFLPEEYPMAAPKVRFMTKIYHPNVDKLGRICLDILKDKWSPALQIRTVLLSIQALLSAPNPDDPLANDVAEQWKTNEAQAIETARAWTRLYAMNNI

Compound	Kd
O=c1cc(-c2ccc(O)cc2)oc2cc(O[C@@H]3O[C@H](CO)[C@@H](O)[C@H](O)[C@H]3O[C@@H]3OC[C@](O)(CO)[C@H]3O)cc(O)c12	> 4 mM (inactive)
COc1ccc(S(=O)(=O)Nc2ccccn2)c(C)c1C	> 4 mM (inactive)
O=C(NCCO)c1cc2ccccc2cc1O	> 4 mM (inactive)
Nc1nc(CSc2ncn(-c3ccccc3)n2)cs1	> 4 mM (inactive)
Cc1noc(C)c1C(=O)NCc1ccco1	> 4 mM (inactive)
NC1=NC(=O)/C(=C/c2ccc(O)c(Cl)c2)S1	> 4 mM (inactive)
COc1ccc(-c2cc(=O)c3c(OC)c(OC)c(OC)c(OC)c3o2)cc1	> 4 mM (inactive)
O=C(O)c1cccc(CSc2ncccn2)c1	> 4 mM (inactive)
S=c1nc2c(n[nH]1)[nH]c1ccccc12	> 4 mM (inactive)
CN1CCC(NC(=O)Cc2c(F)cccc2Cl)CC1	> 4 mM (inactive)
O=C(/C=C/c1ccccc1)c1ccc(O[C@@H]2O[C@H](CO)[C@@H](O)[C@H](O)[C@H]2O)cc1O	> 4 mM (inactive)
Cc1cc(C(=O)NCc2cccs2)cs1	> 4 mM (inactive)
Cc1ccc(C(=O)N2CCOCC2)cc1Cl	> 4 mM (inactive)
NC(=O)CN1CCC(c2nc3ccccc3[nH]2)CC1	> 4 mM (inactive)
CC1Cc2nc(SCC(N)=O)n(C)c(=O)c2S1 (centres undefined)	> 4 mM (inactive)
O=C(O)C1CSC(c2ccccc2)N1 (centres undefined)	> 4 mM (inactive)
NC(C(=O)O)C(O)C(=O)O (centres undefined)	> 4 mM (inactive)
Cc1ccc(C)n1/N=C1\NC(=O)CS1	> 4 mM (inactive)
Cc1cc2c(nn1)CCc1nonc1-2	> 4 mM (inactive)
CSc1ccc(C(=S)N2CCN(C)CC2)cc1	> 4 mM (inactive)
COc1ccc(C(=O)NCC(=O)O)cc1	> 4 mM (inactive)
O=C(Nc1c[nH]c(=O)[nH]c1=O)c1cccs1	> 4 mM (inactive)
NC1=NC(=O)/C(=C/c2ccccc2[N+](=O)[O-])S1	> 4 mM (inactive)
O=C1c2cccnc2C(=O)N1Cc1ccco1	> 4 mM (inactive)
O=C(O)CC[N+](=O)[O-]	> 4 mM (inactive)
S=c1[nH]nc(-c2cccnc2)n1C1CCCCC1	> 4 mM (inactive)
Nc1nnc(SCc2ccc(F)cc2Cl)s1	> 4 mM (inactive)

Compound	Kd
CC1NC(C(=O)O)Cc2c1[nH]c1ccccc21 (centres undefined)	> 4 mM (inactive)
O=C1NC(=S)N/C1=C/c1ccsc1	> 4 mM (inactive)
CN1CCN(C(=O)C2CCCNC2)CC1 (centres undefined)	> 4 mM (inactive)
Nc1ccc2c(c1)C(=O)OC2	> 4 mM (inactive)
CC(=O)O[C@@H]1CC2C(C)(C)CCC(=O)[C@]2(C)C2CC[C@@]3(C)[C@H](c4ccoc4)OC(=O)C4OC43[C@@]21C (some centres undefined)	> 4 mM (inactive)
NC(=O)c1cccc(Cl)n1	> 4 mM (inactive)
O=S1(=O)CCC(NC(=S)Nc2ccccc2)C1 (centres undefined)	> 4 mM (inactive)
O=C1NCC(=O)N2CCc3ccccc3C12 (centres undefined)	> 4 mM (inactive)
C=CC1=C(C)/C(=C/c2[nH]c(Cc3[nH]c(/C=C4\NC(=O)C(C)=C4C=C)c(C)c3CCC(=O)O)c(CCC(=O)O)c2C)NC1=O	> 4 mM (inactive)
O=C(c1ccccc1)N1CCNCC1	> 4 mM (inactive)
Cc1nc2ccccc2c(=O)n1NC(=O)C1CCCCC1	> 4 mM (inactive)
COc1ccc(C2CC(=O)NN2)cc1OC1CCCC1 (centres undefined)	> 4 mM (inactive)
COc1cc(O)c2c(=O)cc(-c3ccc(OC)c(-c4c(O)cc(O)c5c(=O)cc(-c6ccc(O)cc6)oc45)c3)oc2c1	> 4 mM (inactive)
Cc1cc(NC(=O)CSc2ccnc(=O)[nH]2)no1	> 4 mM (inactive)
Cc1ncoc1C(=O)Nc1ncc([N+](=O)[O-])s1	> 4 mM (inactive)
O=S1(=O)CCC(Nc2ccccc2)C1 (centres undefined)	> 4 mM (inactive)
OC12C=CC(CC1)CC2	> 4 mM (inactive)
O=c1ccc2ccccc2o1	> 4 mM (inactive)
OC1CNCc2cc3c(cc21)OCCO3 (centres undefined)	> 4 mM (inactive)
Cc1cc(NC(=O)Cc2c(F)cccc2Cl)no1	> 4 mM (inactive)
O=c1[nH]cc(N2CCCCC2)c(=O)[nH]1	> 4 mM (inactive)
CC(=O)Nc1cccc(-c2nnc3n2CC(C)S3)c1 (centres undefined)	> 4 mM (inactive)
COC(=O)N(c1ccccc1)P1(=S)OCCO1	> 4 mM (inactive)
O=S(=O)(N1CCCCC1)n1nnc2ccccc21	> 4 mM (inactive)
Cn1c(=O)c2c(ncn2C)n(C)c1=O	> 4 mM (inactive)
O=C(Nc1cccnc1)c1cccs1	> 4 mM (inactive)
C[C@@H]1CC[C@@]2(OC1)OC1C(O)C3C4CC[C@H]5C[C@H](O[C@@H]6O[C@H](CO)[C@H](O[C@@H]7O[C@H](CO)[C@@H](O)[C@H](O[C@@H]8OC[C@@H](O)[C@H](O)[C@H]8O)[C@H]7O[C@@H]7O[C@H](CO)[C@H](O)[C@H](O[C@@H]8O[C@H](CO)[C@@H](O)[C@H](O)[C@H]8O)[C@H]7O)[C@H](O)[C@H]6O)[C@H](O)C[C@]5(C)C4CC[C@]3(C)C1[C@@H]2C (some centres undefined)	> 4 mM (inactive)

Compound	Kd
O=C(O)CCC(=O)c1cccc2ccccc12	> 4 mM (inactive)
Cc1ccc(NC(=O)N2CCC(C(N)=O)CC2)cc1	> 4 mM (inactive)
O=C1CCCC(=O)N1c1ccc(O)cc1	> 4 mM (inactive)
Oc1cc(O)cc(/C=C/c2ccccc2)c1	> 4 mM (inactive)
Nc1c(N2CCCC2)cnn(-c2ccccc2)c1=O	> 4 mM (inactive)
Cc1onc(-c2ccccc2)c1C(=O)O	> 4 mM (inactive)
Cc1ccc(-c2nc(-c3cccnc3)no2)c(C)c1	> 4 mM (inactive)
O=C1C2C3C=CC(C3)C2C(=O)N1c1cccnc1 (centres undefined)	> 4 mM (inactive)
C=C1C([C@]2(C)C(CC(=O)OC)[C@@](C)(COC(C)=O)OC(=O)C[C@@H]2OC(C)=O)[C@@H](OC=O)[C@H](OC(=O)C(OC(C)=O)C(C)CC)[C@@]2(C)[C@H](c3ccoc3)CC(=O)C12O (some centres undefined)	> 4 mM (inactive)
Cn1c(=O)[nH]c(=O)c2nsnc21	> 4 mM (inactive)
O=S1(=O)CCC(NC(=S)N2CCOCC2)C1 (centres undefined)	> 4 mM (inactive)
NC(=S)CN1CCCC1=O	> 4 mM (inactive)
Cc1ccc(C(=O)Nc2nnc(-c3ccncc3)s2)o1	> 4 mM (inactive)
Cc1sc(N)c(C(N)=O)c1C	> 4 mM (inactive)
Cc1occc(=O)c1O	> 4 mM (inactive)
CC(C)C(C)/C=C/C(C)[C@H]1CCC2C3=CCC4CC(=O)CC[C@]4(C)C3CC[C@@]21C (some centres undefined)	> 4 mM (inactive)
NC(=O)C1CCN(c2ncnc(N)c2[N+](=O)[O-])CC1	> 4 mM (inactive)
CC1O[C@@H](Oc2c(-c3ccc(O)c(O)c3)oc3cc(O)cc(O)c3c2=O)[C@H](O)[C@H](O)[C@H]1O (some centres undefined)	> 4 mM (inactive)
Cc1cc(OC(=O)c2ccco2)c([N+](=O)[O-])c(=O)[nH]1	> 4 mM (inactive)
OCc1ccc(-n2cncn2)cc1	> 4 mM (inactive)
COC(=O)c1sccc1S(=O)(=O)N1CCCC1	> 4 mM (inactive)
O=C(Nc1nncs1)C1(c2ccccc2)CCCC1	> 4 mM (inactive)
N[C@@H](C(=O)O)[C@@H](O)[C@H](O)[C@H](O)CO	> 4 mM (inactive)
N#Cc1cnn(Cc2ccc(Cl)cc2)c1N	> 4 mM (inactive)
CCN1CCN(c2ncnc3c2nnn3C)CC1	> 4 mM (inactive)
